Patent publication US20050228016A1, “TETRAHYDROQUINOLINES FOR MODULATING THE EXPRESSION OF EXOGENOUS GENES VIA AN ECDYSONE RECEPTOR COMPLEX” (priority 2002, published 2005)

What follows are compounds tested against T1, Gal4DBD/AaEcR (DEF) (Aedes aegypti, UniProt P49880) (assay: cell-based). Details: 33 μM; 3T3 cells; 48 h; average of two wells.
T1 construct: The wildtype D, E, and F domains from mosquito Aedes aegypti EcR; expressed in transfected cells; host or cells: 3T3 cells
Assay type: cell-based
Procedure, shortened: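 Single-dose ligand testing at 33 μM, applied in serum medium after 4 h transfection. Host was 3T3 cells carrying Gal4DBD/AaEcR (DEF) plus a 5× GAL4 RE-driven firefly luciferase reporter (pFRLuc).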

T1 sequence (P28704 286-520 A311G/G315S/G445S/I449V): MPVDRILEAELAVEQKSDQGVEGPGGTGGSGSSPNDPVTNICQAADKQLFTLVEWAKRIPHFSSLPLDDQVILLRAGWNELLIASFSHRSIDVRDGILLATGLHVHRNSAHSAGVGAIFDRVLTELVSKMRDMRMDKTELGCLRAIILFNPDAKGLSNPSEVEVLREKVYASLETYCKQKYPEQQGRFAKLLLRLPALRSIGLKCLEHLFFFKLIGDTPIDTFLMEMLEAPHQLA
T1 sequence (P49880 405-776): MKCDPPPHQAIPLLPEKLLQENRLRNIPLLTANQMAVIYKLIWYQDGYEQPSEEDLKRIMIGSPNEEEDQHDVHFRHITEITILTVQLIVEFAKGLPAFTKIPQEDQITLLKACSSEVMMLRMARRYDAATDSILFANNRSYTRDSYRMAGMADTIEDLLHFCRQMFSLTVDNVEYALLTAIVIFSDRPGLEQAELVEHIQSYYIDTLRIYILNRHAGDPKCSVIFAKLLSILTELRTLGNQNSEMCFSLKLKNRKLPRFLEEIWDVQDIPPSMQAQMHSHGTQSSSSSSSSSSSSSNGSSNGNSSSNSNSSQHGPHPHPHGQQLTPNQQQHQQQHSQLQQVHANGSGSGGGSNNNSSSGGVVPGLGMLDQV

Question: For COc1ccc(C(=O)N(c2ccccc2)C2CC(C)N(C(=O)c3ccc(Cl)cc3)c3ccccc32)cc1 (stereo not shown) [Compound I-120], which “Fold Induction Average, AA_3T3V1 Assay 33 μM” value is on record?
Answer: 249 fold

Question: For Cc1ccc(NC2CC(C)N(C(=O)c3ccc(F)cc3)c3ccc(C)cc32)cc1 (stereo not shown) [Compound I-124], which “Fold Induction Average, AA_3T3V1 Assay 33 μM” value is on record?
Answer: 1 fold

Question: COc1ccc(C(=O)N2c3ccccc3C(N(C(=O)c3cccs3)c3ccccc3)CC2C)cc1 (stereo not shown) [Compound I-131] was tested. Which “Fold Induction Average, AA_3T3V1 Assay 33 μM” value did it give?
Answer: 162 fold

Question: For Cc1ccc(C(=O)N2c3ccccc3C(N(C(=O)c3ccc(F)cc3)c3ccccc3)CC2C)cc1 (stereo not shown) [Compound I-143], which “Fold Induction Average, AA_3T3V1 Assay 33 μM” value is on record?
Answer: 27 fold

Question: How did the “Fold Induction Average, AA_3T3V1 Assay 33 μM” value turn out when CC(=O)N(c1ccc(C)cc1)C1CC(C)N(C(=O)c2ccccc2)c2ccccc21 (stereo not shown) [Compound I-149] was run?
Answer: 1 fold

Question: With CC1CC(Nc2ccccc2)c2ccccc2N1C(=O)COc1ccc(F)cc1 (stereo not shown) [Compound I-159] as the compound, how does the “Fold Induction Average, AA_3T3V1 Assay 33 μM” value read?
Answer: 12 fold

Question: With Cc1ccc(C(=O)N(c2ccccc2)C2CC(C)N(C(=O)c3ccc(Cl)cc3)c3ccccc32)cc1 (stereo not shown) [Compound I-161] as the compound, how does the “Fold Induction Average, AA_3T3V1 Assay 33 μM” value read?
Answer: 28 fold

Question: CC1CC(Nc2ccccc2)c2ccccc2N1C(=O)c1ccc(Cl)c(Cl)c1 (stereo not shown) [Compound I-165] was tested. Which “Fold Induction Average, AA_3T3V1 Assay 33 μM” value did it give?
Answer: 1 fold

Question: For CC1CC(Nc2ccccc2)c2ccccc2N1C(=O)c1ccc(I)cc1 (stereo not shown) [Compound I-168], which “Fold Induction Average, AA_3T3V1 Assay 33 μM” value is on record?
Answer: 401 fold

Question: For CC1CC(Nc2ccccc2)c2ccccc2N1C(=O)CCC1CCCCC1 (stereo not shown) [Compound I-170], which “Fold Induction Average, AA_3T3V1 Assay 33 μM” value is on record?
Answer: 2 fold

Question: For CCOC(=O)C(=O)N1c2ccccc2C(Nc2ccccc2)CC1C (stereo not shown) [Compound I-171], which “Fold Induction Average, AA_3T3V1 Assay 33 μM” value is on record?
Answer: 1 fold

Question: How did the “Fold Induction Average, AA_3T3V1 Assay 33 μM” value turn out when CC1CC(Nc2ccccc2)c2ccccc2N1C(=O)c1ccc(NS(C)(=O)=O)cc1 (stereo not shown) [Compound I-175] was run?
Answer: 1 fold

Question: Which “Fold Induction Average, AA_3T3V1 Assay 33 μM” value does the source give for CC(C)C(=O)N1c2ccccc2C(N(C(=O)c2ccccc2)c2ccc([N+](=O)[O-])cc2)CC1C (stereo not shown) [Compound I-178] here?
Answer: 1 fold

Question: Which “Fold Induction Average, AA_3T3V1 Assay 33 μM” value does the source give for CCC(=O)N1c2ccccc2C(N(C(=O)c2ccc([N+](=O)[O-])cc2)c2ccccc2)CC1C (stereo not shown) [Compound I-183] here?
Answer: 1 fold

Question: Cc1ccc(C(=O)N2c3ccc(F)cc3C(N(C(=O)c3ccc(C)c(F)c3)c3ccc(F)cc3)CC2C)cc1F (stereo not shown) [Compound I-197] was tested. Which “Fold Induction Average, AA_3T3V1 Assay 33 μM” value did it give?
Answer: 686 fold

What follows are compounds tested on GAL4 DBD-CfEcR(DEF)/VP16AD-MmRXRE (assay: not given). Details: CHO 13B3 clone, 48 h, average of two wells.
From the text: GAL4 DBD-CfEcR(DEF)/VP16AD-MmRXRE: The wild-type D, E, and F domains from spruce budworm Choristoneura fumiferana EcR (“CfEcR-DEF”; SEQ ID NO: 1) were fused to a GAL4 DNA binding domain (“Gal4DBD1-147”; nucleotides 31 to 471 of SEQ ID NO: 2) and placed under the control of the SV40e promoter of pM vector (PT3119-5, Clontech, Palo Alto, Calif.). The D and E domains from Mus Musculus RXR (“MmRXR-DE”; SEQ ID NO: 22) were fused to the transactivation domain from VP16 (“VP16AD”; SEQ ID NO: 5) and placed under the control of the SV40e promoter of the pVP16 vector (PT3127-5, Clontech, Palo Alto, Calif.).
CHO cells were transiently transfected with transcription cassettes for GAL4 DBD-CfEcR(DEF) and for VP16AD-MmRXRE controlled by SV40e promoters. Stably transfected cells were selected using Hygromycin. Individually isolated CHO cell clones were transiently transfected with a GAL4 RE-luciferase reporter (pFR-Luc, Stratagene, La Jolla, Calif.). The 13B3 clone was selected using Zeocin.
Cells were trypsinized and diluted to a concentration of 2.5×10^4 cells mL. 100 μL of cell suspension was placed in each well of a 96 well plate and incubated at 37° C. under 5% CO2 for 24 h. Ligand stock solutions were prepared in DMSO and diluted 300 fold for all treatments.
Luciferase reporter gene expression was measured 48 h after cell treatment using Bright-Glo™ Luciferase Assay System from Promega (E2650). Luminescence was detected at room temperature using a Dynex MLX microtiter plate luminometer.
Each assay was conducted in two separate wells, and the two values were averaged. Fold inductions were calculated by dividing relative light units (“RLU”) in ligand treated cells with RLU in DMSO treated cells.

Question: For COc1ccc(C(=O)N(c2ccccc2)C2CC(C)N(C(=O)c3ccc(Cl)cc3)c3ccccc32)cc1 (stereo not shown) [Compound I-120], which “Fold Induction Average, 13B3V1 Assay 33 μM” value is on record?
Answer: 1 fold

Question: For Cc1ccc(NC2CC(C)N(C(=O)c3ccc(F)cc3)c3ccc(C)cc32)cc1 (stereo not shown) [Compound I-124], which “Fold Induction Average, 13B3V1 Assay 33 μM” value is on record?
Answer: 3 fold

Question: Which “Fold Induction Average, 13B3V1 Assay 33 μM” value does the source give for COc1ccc(C(=O)N2c3ccccc3C(N(C(=O)c3cccs3)c3ccccc3)CC2C)cc1 (stereo not shown) [Compound I-131] here?
Answer: 1 fold

Question: With CC(=O)N(c1ccc(C)cc1)C1CC(C)N(C(=O)c2ccccc2)c2ccccc21 (stereo not shown) [Compound I-149] as the compound, how does the “Fold Induction Average, 13B3V1 Assay 33 μM” value read?
Answer: 3 fold

Question: With Cc1ccc(C(=O)N(c2ccccc2)C2CC(C)N(C(=O)c3ccc(Cl)cc3)c3ccccc32)cc1 (stereo not shown) [Compound I-161] as the compound, how does the “Fold Induction Average, 13B3V1 Assay 33 μM” value read?
Answer: 1 fold

Question: Which “Fold Induction Average, 13B3V1 Assay 33 μM” value does the source give for CC(=O)N1c2ccccc2C(N(C(=O)c2ccccc2F)c2ccccc2)CC1C (stereo not shown) [Compound I-185] here?
Answer: 1 fold

Question: With Cc1ccc(N(C(=O)c2ccc3c(c2)OCO3)C2CC(C)N(C(=O)c3ccc4c(c3)OCO4)c3ccc(C)cc32)cc1 (stereo not shown) [Compound I-194] as the compound, how does the “Fold Induction Average, 13B3V1 Assay 33 μM” value read?
Answer: 1 fold

These compounds were tested against T2, Bombyx mori EcR (VP16-BmEcR, CVBE) (Bombyx mori, UniProt P49881) (assay: Z3 assay (HEK-293 clone Z3 with CVBE and 6x EcRE LacZ, β-galactosidase reporter)). Details: 48 h, average of two wells.
T2 construct: expressed in transfected cells
T2 sequence (P49881 86-606): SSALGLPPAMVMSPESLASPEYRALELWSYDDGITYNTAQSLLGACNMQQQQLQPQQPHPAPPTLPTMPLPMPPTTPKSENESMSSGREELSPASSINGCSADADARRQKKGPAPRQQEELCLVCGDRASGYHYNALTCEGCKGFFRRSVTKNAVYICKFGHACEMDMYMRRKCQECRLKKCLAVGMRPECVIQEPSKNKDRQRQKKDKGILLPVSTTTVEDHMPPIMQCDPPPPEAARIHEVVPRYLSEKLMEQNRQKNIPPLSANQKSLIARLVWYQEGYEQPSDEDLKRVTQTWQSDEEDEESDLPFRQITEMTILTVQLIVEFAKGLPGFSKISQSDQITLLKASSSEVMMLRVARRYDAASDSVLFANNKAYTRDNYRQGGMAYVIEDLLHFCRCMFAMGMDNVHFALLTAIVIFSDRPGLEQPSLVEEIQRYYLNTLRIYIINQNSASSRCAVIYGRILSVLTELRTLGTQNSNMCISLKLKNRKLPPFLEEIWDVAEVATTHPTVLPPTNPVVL
Assay type: cell-based

Question: With COc1ccc(C(=O)N2c3ccccc3C(N(C(=O)c3cccs3)c3ccccc3)CC2C)cc1 (stereo not shown) [Compound I-131] as the compound, how does the “Fold Induction Average, Z3V1 Assay 33 μM” value read?
Answer: 4 fold

Question: How did the “Fold Induction Average, Z3V1 Assay 33 μM” value turn out when Cc1ccc(C(=O)N2c3ccccc3C(N(C(=O)c3ccc(F)cc3)c3ccccc3)CC2C)cc1 (stereo not shown) [Compound I-143] was run?
Answer: 1 fold

Question: Which “Fold Induction Average, Z3V1 Assay 33 μM” value does the source give for CC1CC(Nc2ccccc2)c2ccccc2N1C(=O)COc1ccc(F)cc1 (stereo not shown) [Compound I-159] here?
Answer: 1 fold

Question: For CC1CC(Nc2ccccc2)c2ccccc2N1C(=O)c1ccc(Cl)c(Cl)c1 (stereo not shown) [Compound I-165], which “Fold Induction Average, Z3V1 Assay 33 μM” value is on record?
Answer: 1 fold

Question: CC1CC(Nc2ccccc2)c2ccccc2N1C(=O)c1ccc(I)cc1 (stereo not shown) [Compound I-168] was tested. Which “Fold Induction Average, Z3V1 Assay 33 μM” value did it give?
Answer: 3 fold

Question: Which “Fold Induction Average, Z3V1 Assay 33 μM” value does the source give for CC1CC(Nc2ccccc2)c2ccccc2N1C(=O)CCC1CCCCC1 (stereo not shown) [Compound I-170] here?
Answer: 1 fold

Question: How did the “Fold Induction Average, Z3V1 Assay 33 μM” value turn out when CCOC(=O)C(=O)N1c2ccccc2C(Nc2ccccc2)CC1C (stereo not shown) [Compound I-171] was run?
Answer: 1 fold

Question: Which “Fold Induction Average, Z3V1 Assay 33 μM” value does the source give for CC1CC(Nc2ccccc2)c2ccccc2N1C(=O)c1ccc(NS(C)(=O)=O)cc1 (stereo not shown) [Compound I-175] here?
Answer: 5 fold

Question: With CC(C)C(=O)N1c2ccccc2C(N(C(=O)c2ccccc2)c2ccc([N+](=O)[O-])cc2)CC1C (stereo not shown) [Compound I-178] as the compound, how does the “Fold Induction Average, Z3V1 Assay 33 μM” value read?
Answer: 1 fold

Question: For CCC(=O)N1c2ccccc2C(N(C(=O)c2ccc([N+](=O)[O-])cc2)c2ccccc2)CC1C (stereo not shown) [Compound I-183], which “Fold Induction Average, Z3V1 Assay 33 μM” value is on record?
Answer: 2 fold

Question: CC(=O)N1c2ccccc2C(N(C(=O)c2ccccc2F)c2ccccc2)CC1C (stereo not shown) [Compound I-185] was tested. Which “Fold Induction Average, Z3V1 Assay 33 μM” value did it give?
Answer: 1 fold

Question: Which “Fold Induction Average, Z3V1 Assay 33 μM” value does the source give for Cc1ccc(C(=O)N2c3ccc(F)cc3C(N(C(=O)c3ccc(C)c(F)c3)c3ccc(F)cc3)CC2C)cc1F (stereo not shown) [Compound I-197] here?
Answer: 1 fold
